Data taken from publication PMC4897788, “Design, biological evaluation and 3D QSAR studies of novel dioxin-containing pyrazoline derivatives with thiourea skeleton as selective HER-2 inhibitors” (Scientific Reports, 2016).

How the values were obtained:
[1] = system: MDA-MB-453 human breast cancer cell line; assay: Anti-proliferation assay (MTT), MDA-MB-453; assay type: cell-based; conditions: 24 h
Procedure: (§1) MCF-7 human breast cancer cells was cultured in DMEM/10% fetal bovine serum, in 5% CO2 water saturated atmosphere at 37 °C. MDA-MB-453 human breast cancer cells was cultured in L-15 medium in 100% air at 37 °C. Cell suspensions (10000/mL) were prepared and 100 μL/well dispensed into 96-well plates (Costar) giving 1000 cells/well. The plates were returned to the incubator for 24 h to allow the cells to reattach. These compounds were initially prepared at 20 mM in DMSO. Aliquots (200 μL) were diluted into 20 mL culture medium giving 200 μM, and 10 serial dilutions of 3× prepared. Aliquots (100 μL) of each dilution were added to the wells, giving doses ranging from 100 μM to 0.005 μM. After a further incubated at 37 °C for 24 h in a humidified atmosphere with 5% CO2, the cell viability was assessed by the conventional 3-(4,5-dimethylthiazol-2-yl)-2,5-diphenyltetrazolium bromide (MTT) reduction assay and carried out strictly according to the manufacturer instructions (Sigma). The absorbance at 590 nm was recorded using LX300 Epson Diagnostic micro-plate reader. Then GI50 was calculated using SPSS 13.0 software.

[2] = system: MCF-7 human breast cancer cell line; assay: Anti-proliferation assay (MTT), MCF-7; assay type: cell-based; conditions: MCF7, 24 h
Procedure: as §1

[3] = target: EGFR (Homo sapiens, UniProt P00533); assay: EGFR autophosphorylation kinase assay (DELFIA/time-resolved fluorometry)
Procedure: (§2) A sequence that encodes (His)6 was located at the 5′ upstream to the HER-2 and EGFR sequences. Sf-9 cells were infected for 3 days for protein expression. Sf-9 cell pellets were solubilized at 0 °C in a buffer at pH 7.4 containing 50 mM HEPES, 10 mM NaCl, 1% Triton, 10 μM ammonium molybdate, 100 μM sodium vanadate, 10 μg/mL aprotinin, 10 μg/mL leupeptin, 10 μg/mL pepstatin, and 16 μg/mL benzamidine, HCl for 20 min followed by 20 min centrifugation. Crude extract supernatant was passed through an equilibrated Ni–NTA superflow packed column and washed with 10 mM and then 100 mM imidazole to remove nonspecifically bound material. Histidine-tagged proteins were eluted with 250 and 500 mM imidazole and dialyzed against 50 mM NaCl, 20 mM HEPES, 10% glycerol and 1 μg/mL each of aprotinin, leupeptin, and pepstatin for 2 h. The entire purification procedure was performed at 4 °C or on ice.
(§3) Both EGFR and HER-2 kinase assays were set up to assess the level of autophosphorylation based on DELFIA/Time-Resolved Fluorometry. […] Then, 10 μL of 5× buffer (containing 20 mM HEPES, 2 mM MnCl2, 100 μM Na3VO4, and 1 mM DTT) and 20 μL of 0.1 mM ATP-50 mM MgCl2 was added for 1 h. Positive and negative controls were included in each plate by incubation of enzyme with or without ATP-MgCl2. At the end of incubation, liquid was aspirated and plates were washed three times with wash buffer. A 75 μL (400 ng) sample of europium-labeled anti-phosphotyrosine antibody was added to each well for another 1 h of incubation. […] The IC50 was obtained from curves of percentage inhibition with eight concentrations of compound. As the contaminants in the enzyme preparation are fairly low, the majority of the signal detected by the anti-phosphotyrosine antibody is from EGFR or HER-2. The experiment was performed for three independent times and in triplicate each time.

[4] = target: HER-2 (Homo sapiens, UniProt P04626); assay: HER-2 autophosphorylation kinase assay (DELFIA/time-resolved fluorometry); conditions: for SI EGFR/HER-2: selectivity index, IC50 EGFR/IC50 HER-2
Chain of HER-2 (P04626 676-1245): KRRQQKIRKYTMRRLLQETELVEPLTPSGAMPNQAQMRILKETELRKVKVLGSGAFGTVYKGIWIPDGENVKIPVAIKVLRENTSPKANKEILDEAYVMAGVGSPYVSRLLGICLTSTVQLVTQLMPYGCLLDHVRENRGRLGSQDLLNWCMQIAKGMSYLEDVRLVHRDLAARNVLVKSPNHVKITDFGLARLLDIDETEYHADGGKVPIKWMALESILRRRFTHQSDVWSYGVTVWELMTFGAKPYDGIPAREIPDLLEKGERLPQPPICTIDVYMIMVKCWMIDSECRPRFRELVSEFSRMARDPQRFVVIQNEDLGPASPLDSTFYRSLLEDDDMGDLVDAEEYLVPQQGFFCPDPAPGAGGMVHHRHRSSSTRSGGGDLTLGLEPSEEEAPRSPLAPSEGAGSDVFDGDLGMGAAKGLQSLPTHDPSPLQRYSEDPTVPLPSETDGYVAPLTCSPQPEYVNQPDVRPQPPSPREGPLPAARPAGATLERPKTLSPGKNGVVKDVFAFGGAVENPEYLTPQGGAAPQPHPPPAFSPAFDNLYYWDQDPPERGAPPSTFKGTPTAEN
Procedure: as §2, §3

Chain of EGFR (P00533 669-1210): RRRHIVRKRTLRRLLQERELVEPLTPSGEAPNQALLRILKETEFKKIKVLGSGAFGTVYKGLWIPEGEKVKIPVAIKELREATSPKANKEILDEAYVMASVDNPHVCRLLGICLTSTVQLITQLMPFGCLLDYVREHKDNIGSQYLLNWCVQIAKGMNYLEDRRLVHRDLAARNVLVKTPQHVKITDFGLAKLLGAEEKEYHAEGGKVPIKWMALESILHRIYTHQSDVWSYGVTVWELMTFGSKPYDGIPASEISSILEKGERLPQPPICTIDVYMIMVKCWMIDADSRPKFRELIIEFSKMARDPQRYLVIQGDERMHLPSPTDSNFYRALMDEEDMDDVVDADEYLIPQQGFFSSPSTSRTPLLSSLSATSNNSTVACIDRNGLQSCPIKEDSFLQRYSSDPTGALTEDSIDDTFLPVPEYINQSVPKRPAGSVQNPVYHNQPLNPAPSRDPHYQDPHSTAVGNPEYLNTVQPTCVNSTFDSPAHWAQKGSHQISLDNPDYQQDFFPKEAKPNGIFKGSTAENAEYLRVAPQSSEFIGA

| SMILES | GI50 [1] [µM] | GI50 [2] [µM] | melting point [°C] | IC50 [3] [µM] | IC50 [4] [µM] | SI EGFR/HER-2 [4] |
| --- | --- | --- | --- | --- | --- | --- |
| NC(=S)N1N=C(c2ccc3c(c2)OCCO3)CC1c1ccccc1 (stereo not shown) [Compound C1, 3-(2,3-dihydrobenzo[b][1,4]dioxin-6-yl)-5-phenyl-4,5-dihydro-1H-pyrazole-1-carbothioamide] | 63.4 ± 6.12 | 10 ± 0.91 | 166 to 168 | 21.9 ± 2.03 | 16 ± 1.45 | 1.36 |
| NC(=S)N1N=C(c2ccc3c(c2)OCCO3)CC1c1ccc(Cl)cc1 (stereo not shown) [Compound C12, 5-(4-chlorophenyl)-3-(2,3-dihydrobenzo[b][1,4]dioxin-6-yl)-4,5-dihydro-1H-pyrazole-1-carbothioamide] | 5.31 ± 0.48 | 33.9 ± 3.21 | 231 to 233 | 53.8 ± 5.12 | 0.84 ± 0.07 | 64.1 |
| NC(=S)N1N=C(c2ccc3c(c2)OCCO3)CC1c1ccc2ccccc2c1 (stereo not shown) [Compound C3, 3-(2,3-dihydrobenzo[b][1,4]dioxin-6-yl)-5-(naphthalen-2-yl)-4,5-dihydro-1H-pyrazole-1-carbothioamide] | 19.9 ± 1.84 | 5.3 ± 0.49 | 204 to 206 | 4.42 ± 0.35 | 7.18 ± 0.65 | 0.62 |
| COc1cccc(C2CC(c3ccc4c(c3)OCCO4)=NN2C(N)=S)c1 (stereo not shown) [Compound C5, 3-(2,3-dihydrobenzo[b][1,4]dioxin-6-yl)-5-(3-methoxyphenyl)-4,5-dihydro-1H-pyrazole-1-carbothioamide] | 135 ± 11.1 | 57.2 ± 5.36 | 168 to 170 | 43.6 ± 4.1 | 86.5 ± 8.05 | 0.50 |
| NC(=S)N1N=C(c2ccc3c(c2)OCCO3)CC1c1ccccc1F (stereo not shown) [Compound C4, 3-(2,3-dihydrobenzo[b][1,4]dioxin-6-yl)-5-(2-fluorophenyl)-4,5-dihydro-1H-pyrazole-1-carbothioamide] | > 300 | 185 ± 17.8 | 169 to 171 | 59.3 ± 5.58 | 125 ± 10.2 | 0.47 |
| CS(=O)(=O)CCNCc1ccc(-c2ccc3ncnc(Nc4ccc(OCc5cccc(F)c5)c(Cl)c4)c3c2)o1 [Lapatinib, reference compound] | 0.03 ± 0.002 | 3.12 ± 0.24 |  |  |  |  |
| NC(=S)N1N=C(c2ccc3c(c2)OCCO3)CC1c1cccc(Cl)c1 (stereo not shown) [Compound C7, 5-(3-chlorophenyl)-3-(2,3-dihydrobenzo[b][1,4]dioxin-6-yl)-4,5-dihydro-1H-pyrazole-1-carbothioamide] | > 300 | 16.8 ± 0.98 | 246 to 248 | 9.45 ± 0.88 | 62.8 ± 5.67 | 0.15 |
| NC(=S)N1N=C(c2ccc3c(c2)OCCO3)CC1c1ccc(OCc2ccccc2)cc1 (stereo not shown) [Compound C16, 5-(4-(benzyloxy)phenyl)-3-(2,3-dihydrobenzo[b][1,4]dioxin-6-yl)-4,5-dihydro-1H-pyrazole-1-carbothioamide] | 0.36 ± 0.03 | 5.99 ± 0.55 | 197 to 199 | 10.2 ± 0.94 | 0.13 ± 0.01 | 78.5 |
| NC(=S)N1N=C(c2ccc3c(c2)OCCO3)CC1c1cccc(OCc2ccccc2)c1 (stereo not shown) [Compound C6, 5-(3-(benzyloxy)phenyl)-3-(2,3-dihydrobenzo[b][1,4]dioxin-6-yl)-4,5-dihydro-1H-pyrazole-1-carbothioamide] | 0.2 ± 0.02 | 4.95 ± 0.43 | 178 to 180 | 4.49 ± 0.41 | 0.06 ± 0.004 | 74.8 |
| NC(=S)N1N=C(c2ccc3c(c2)OCCO3)CC1c1c(F)cccc1F (stereo not shown) [Compound C18, 5-(2,6-difluorophenyl)-3-(2,3-dihydrobenzo[b][1,4]dioxin-6-yl)-4,5-dihydro-1H-pyrazole-1-carbothioamide] | 8.68 ± 0.84 | 15.2 ± 1.4 | 208 to 209 | 34 ± 3.08 | 0.96 ± 0.08 | 35.4 |
| NC(=S)N1N=C(c2ccc3c(c2)OCCO3)CC1c1ccc(I)cc1 (stereo not shown) [Compound C14, 3-(2,3-dihydrobenzo[b][1,4]dioxin-6-yl)-5-(4-iodophenyl)-4,5-dihydro-1H-pyrazole-1-carbothioamide] | 9.12 ± 0.89 | 135 ± 11.6 | 259 to 261 | 84.3 ± 7.81 | 1.23 ± 0.1 | 68.5 |
| NC(=S)N1N=C(c2ccc3c(c2)OCCO3)CC1c1ccco1 (stereo not shown) [Compound C19, 3-(2,3-dihydrobenzo[b][1,4]dioxin-6-yl)-5-(furan-2-yl)-4,5-dihydro-1H-pyrazole-1-carbothioamide] | 33.4 ± 2.95 | > 300 | 174 to 175 | 197 ± 18.5 | 12 ± 1.02 | 16.3 |
| NC(=S)N1N=C(c2ccc3c(c2)OCCO3)CC1c1ccc(F)cc1 (stereo not shown) [Compound C11, 3-(2,3-dihydrobenzo[b][1,4]dioxin-6-yl)-5-(4-fluorophenyl)-4,5-dihydro-1H-pyrazole-1-carbothioamide] | 11.9 ± 1.05 | 28.5 ± 2.8 | 235 to 237 | 47.8 ± 4.54 | 1.9 ± 0.15 | 25.2 |
| NC(=S)N1N=C(c2ccc3c(c2)OCCO3)CC1c1cccc2ccccc12 (stereo not shown) [Compound C2, 3-(2,3-dihydrobenzo[b][1,4]dioxin-6-yl)-5-(naphthalen-1-yl)-4,5-dihydro-1H-pyrazole-1-carbothioamide] | 2.2 ± 0.18 | 4.68 ± 0.42 | 214 to 216 | 2.94 ± 0.26 | 0.56 ± 0.05 | 5.25 |
| C#Cc1cccc(Nc2ncnc3cc(OCCOC)c(OCCOC)cc23)c1 [Erlotinib, reference compound] | 1.56 ± 0.14 | 0.08 ± 0.006 |  |  |  |  |
| NC(=S)N1N=C(c2ccc3c(c2)OCCO3)CC1c1cccc(Br)c1 (stereo not shown) [Compound C8, 5-(3-bromophenyl)-3-(2,3-dihydrobenzo[b][1,4]dioxin-6-yl)-4,5-dihydro-1H-pyrazole-1-carbothioamide] | 1.69 ± 0.15 | 5.64 ± 0.52 | 247 to 249 | 8.63 ± 0.78 | 0.45 ± 0.04 | 19.2 |
